Consider two compounds from patent US7326725B2, “Fungicidal composition based on at least one pyridylmethylbenzamide derivatives and at least on dithiocarbamate derivative” (Bayer Cropscience S.A., priority 2001, dated 2008).

The subject of this assay is Plasmopara viticola. As to the kind of experiment: Curative test of 24 hours on grapevine infected with Plasmopara viticola. The class given is in vivo. The conditions noted are these: single compound, curative spray on Chardonay grapevine, assessed after six days at 20° C. How it is done:
The trials consisted in curative tests of 24 hours on grapevine infected with Plasmopara viticola.
Grapevine (Chardonay variety) plants are grown on sandy soil in plastic pots, with one plant per pot. The plants which are two months old (6- to 7-leaf stage) are inoculated by spraying an aqueous suspension of Plasmopara viticola sporocysts obtained from infected leaves. The concentration of sporocysts is about 100 000 units per ml.
After infection, the inoculated plants are subjected to a curative treatment by spraying with compound (I) alone and compound (II) alone, and with a mixture of compound (I) and compound (II), in each case applied at a dose of 500 l/ha.
After infection and curative treatment, the plants are covered and left for six days at 20° C.
The percentage control of the disease (efficacy: see below) is calculated for each treatment with reference to the untreated plants and the expected results are calculated using the Colby formula (see below).
The difference between the real results and the expected results is used to determine the synergy between the two fungicidal compounds of the composition according to the invention.
The efficacy of the treatment is calculated using the following Abbott formula: […]
Analysis of the results is carried out using the Colby model:
[formula] in which E represents the expected percentage of inhibition of the disease for the combination of the two fungicides at defined doses (for example equal to x and y respectively), x is the percentage of inhibition observed for the disease by the compound (I) at a defined dose (equal to x), y is the percentage of inhibition observed for the disease by the compound (II) at a defined dose (equal to y). When the percentage of inhibition observed for the combination is greater than E, there is a synergistic effect.

Turning to `O=C(NCc1ncc(C(F)(F)F)cc1Cl)c1c(Cl)cccc1Cl` [(Ia), 2,6-dichloro-N-{[3-chloro-5-(trifluoromethyl)-2-pyridinyl]methyl}-benzamide], the Percentage efficacy runs as follows: (level 0.1 ppm) 11.9%; (level 1 ppm) 58.2%; (level 5 ppm) 65.7%.

mancozeb: the Percentage efficacy is reported as 23.1% (level 1 ppm), 5.2% (level 10 ppm) and 17.2% (level 25 ppm).
